# Like-named read-outs stand apart in the source and are kept apart here.
# Experiments:
# [1] = physchem; assay type: physicochemical
# Description: 1 Method Description for Determination of the logP values and Mass Detection
# Eluents for determination in the acidic range (pH 3.4): • Eluent A: acetonitrile+1 ml formic acid/l.
# The λmax values were determined in the maxima of the chromatographic signals using the UV spectra from 200 nm to 400 nm. The mass was detected (M^+, m/z) by means of an Agilent MSD mass spectrometer.
# [2] = tested on: green peach aphid (Myzus persicae); assay: Myzus persicae test (spray treatment); assay type: in vivo; details: foliar, 144 h, read-out: efficacy in %
# Description: Myzus persicae Test (Spray Treatment)
# • Solvent: 78 parts by weight of acetone • 1.5 parts by weight of dimethylformamide • Emulsifier: 0.5 part by weight of alkylaryl polyglycol ether
# To prepare an appropriate active ingredient preparation, 1 part by weight of active ingredient is mixed with the stated amounts of solvent and emulsifier, and the concentrate is diluted with emulsifier-containing water to the desired concentration. Discs of Chinese cabbage (Brassica pekinensis) infested by all stages of the green peach aphid (Myzus persicae) are sprayed with an active ingredient preparation of the desired concentration.
# After 6 days, the efficacy in % is determined. 100% means that all of the aphids have been killed; 0% means that none of the aphids have been killed.
# [3] = tested on: armyworm (Spodoptera frugiperda); assay: Spodoptera frugiperda test (spray treatment); assay type: in vivo; details: application rate 500 g/ha; maize leaf discs sprayed; after 7 days; 100% = all caterpillars killed
# Description: Spodoptera frugiperda Test (Spray Treatment)
# • Solvent: 78.0 parts by weight of acetone • 1.5 parts by weight of dimethylformamide • Emulsifier: 0.5 part by weight of alkylaryl polyglycol ether
# To prepare an appropriate active ingredient preparation, 1 part by weight of active ingredient is mixed with the stated amounts of solvent and emulsifier, and the concentrate is diluted with emulsifier-containing water to the desired concentration. Discs of maize leaves (Zea mays) are sprayed with an active ingredient preparation of the desired concentration and, after drying, populated with the armyworm (Spodoptera frugiperda).
# After 7 days, the efficacy in % is determined. 100% means that all caterpillars have been killed; 0% means that none of the caterpillars have been killed.
# [4] = reverse-phase HPLC column (C 18), pH 3.4, HPLC, reverse-phase C 18, acidic range pH 3.4, 55° C., table of compounds, read-out: logP (HCO2H)
# [5] = reverse-phase HPLC column (C 18), pH 3.4, HPLC-MS value printed in the preparation example text, acidic range pH 3.4, read-out: logP (HCOOH)
# [6] = application rate 500 g/ha, Chinese cabbage leaf discs sprayed, after 6 days, 100% = all aphids killed
Compound,"chromatographic logP [1, 4]","chromatographic logP [1, 5]",pest or weed control at 500 g/ha ([2]; in Brassica rapa),efficacy in % [3],"pest or weed control at 500 g/ha [2, 6]","chromatographic logP ([1]; pH 3.4, logP (HCO2H))"
"CC(F)(F)CNC(=O)c1cn(-c2cccnc2)nn1 [Compound 37, N-(2,2-Difluoropropyl)-1-(pyridin-3-yl)-1H-1,2,3-triazole-4-carboxamide]",1.21,1.25,100%,100%,–,–
CCN(CC)C(=O)c1oc(-c2cccnc2)cc1C [Compound 24],1.58,–,–,–,90%,–
"O=C(NCC(F)(F)F)n1cnc(-c2cccnc2)c1 [Compound 1, 4-(Pyridin-3-yl)-N-(2,2,2-trifluoroethyl)-1H-imidazole-1-carboxamide]",0.65,0.65,–,–,100%,–
C=C(Cl)CNC(=O)c1ccc(-c2cccnc2)o1 [Compound 19],1.28,–,–,–,100%,–
O=C(NCc1cccs1)c1ccc(-c2cccnc2)o1 [Compound 17],1.46,–,–,–,100%,–
CCN(CC)C(=O)c1ccc(-c2cccnc2)o1 [Compound 6],1.23,–,–,–,100%,–
CC(NC(=O)c1ccc(-c2cccnc2)o1)C1CC1 (stereo not shown) [Compound 8],1.36,–,–,–,80%,–
O=C(NCc1ncccn1)C1CN=C(c2cccnc2)S1 (stereo not shown) [Compound 43],–,–,–,–,100%,0.32

# — patent publication US9233951B2, “Heterocyclic compounds as pesticides” (Bayer Intellectual Property GmbH, priority 2010, dated 2016)
